Results: paper PMC8222254, “Self-assembly of an anion receptor with metal-dependent kinase inhibition and potent in vitro anti-cancer properties” (Nature Communications, 2021)
Values joined by “and” are separate entries in the source; they are usually repeats but may differ in a detail not shown here. Identical values can stand only once.

Experiments:
Assay in all cases: Kinase inhibition screen, cell-free 33P ATP assay at 10 μM
Format in all cases: biochemical
[1] = molecular target: 140 purified human kinases (Homo sapiens, UniProt Q13177)
Outline: (§1)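 Each complex tested in duplicate at 10 μM; cell-free radiometric assay using ^33P ATP on purified enzymes. Hits mapped by HGNC symbol onto the kinome tree.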

[2] = molecular target: T1, 140 purified human kinases (Homo sapiens, UniProt Q9NZJ5)
T1 sequence (Q9NZJ5 30-1116): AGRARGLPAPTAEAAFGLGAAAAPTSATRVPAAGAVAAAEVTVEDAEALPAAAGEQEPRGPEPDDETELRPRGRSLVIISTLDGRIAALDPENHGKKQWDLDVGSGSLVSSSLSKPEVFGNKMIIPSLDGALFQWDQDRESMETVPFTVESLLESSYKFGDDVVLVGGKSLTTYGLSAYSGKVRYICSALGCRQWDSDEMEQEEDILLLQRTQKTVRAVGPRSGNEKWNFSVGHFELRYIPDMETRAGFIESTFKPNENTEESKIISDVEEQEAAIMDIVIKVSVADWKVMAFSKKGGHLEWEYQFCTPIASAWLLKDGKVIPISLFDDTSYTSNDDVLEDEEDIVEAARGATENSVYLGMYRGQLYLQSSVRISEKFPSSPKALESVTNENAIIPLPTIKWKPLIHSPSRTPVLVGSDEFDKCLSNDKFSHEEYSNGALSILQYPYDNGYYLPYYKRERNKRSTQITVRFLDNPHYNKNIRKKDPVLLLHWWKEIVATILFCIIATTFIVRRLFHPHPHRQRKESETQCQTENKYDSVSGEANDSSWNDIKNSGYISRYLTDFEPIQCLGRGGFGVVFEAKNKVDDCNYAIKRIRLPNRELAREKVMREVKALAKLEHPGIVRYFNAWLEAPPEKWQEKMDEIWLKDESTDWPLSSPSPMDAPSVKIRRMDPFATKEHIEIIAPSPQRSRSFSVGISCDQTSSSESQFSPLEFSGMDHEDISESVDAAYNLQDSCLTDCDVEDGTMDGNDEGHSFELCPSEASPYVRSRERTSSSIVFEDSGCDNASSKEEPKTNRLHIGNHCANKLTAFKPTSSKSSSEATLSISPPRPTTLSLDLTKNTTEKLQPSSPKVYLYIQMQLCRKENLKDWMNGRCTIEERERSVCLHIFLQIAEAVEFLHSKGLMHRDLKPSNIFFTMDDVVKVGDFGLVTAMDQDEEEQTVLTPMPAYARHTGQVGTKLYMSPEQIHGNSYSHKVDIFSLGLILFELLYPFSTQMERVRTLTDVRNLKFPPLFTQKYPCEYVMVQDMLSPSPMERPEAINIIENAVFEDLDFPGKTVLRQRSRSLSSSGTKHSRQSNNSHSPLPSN
Outline: as §1

[3] = molecular target: 140 purified human kinases (Homo sapiens, UniProt P28482)
Outline: as §1

[4] = molecular target: 140 purified human kinases (Homo sapiens, UniProt Q86Z02)
Outline: as §1

[5] = molecular target: 140 purified human kinases (Homo sapiens, UniProt Q16584)
Outline: as §1

[6] = molecular target: T2, 140 purified human kinases (Homo sapiens, UniProt P36897)
T2 sequence (P36897 34-503): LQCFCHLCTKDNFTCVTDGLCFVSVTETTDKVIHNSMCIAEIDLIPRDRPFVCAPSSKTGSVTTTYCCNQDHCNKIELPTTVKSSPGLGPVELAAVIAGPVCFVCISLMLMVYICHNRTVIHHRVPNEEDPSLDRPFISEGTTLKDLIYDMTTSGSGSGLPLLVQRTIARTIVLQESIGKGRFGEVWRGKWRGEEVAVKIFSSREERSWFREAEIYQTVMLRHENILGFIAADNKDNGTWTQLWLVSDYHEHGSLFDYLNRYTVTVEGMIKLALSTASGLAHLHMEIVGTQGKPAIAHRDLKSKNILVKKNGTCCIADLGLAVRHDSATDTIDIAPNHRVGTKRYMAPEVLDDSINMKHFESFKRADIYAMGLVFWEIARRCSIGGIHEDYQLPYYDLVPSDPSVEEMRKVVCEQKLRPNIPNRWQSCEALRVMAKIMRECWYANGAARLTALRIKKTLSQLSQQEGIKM
Outline: as §1

[7] = molecular target: 140 purified human kinases (Homo sapiens, UniProt P43405); settings: SYK
Outline: as §1

[8] = molecular target: 140 purified human kinases (Homo sapiens, UniProt Q15759); settings: p38b MAPK
Outline: as §1

[9] = molecular target: 140 purified human kinases (Homo sapiens, UniProt P14616); settings: IRR
Outline: as §1

140 purified human kinases (Homo sapiens, UniProt Q13177), sequence (Q13177 whole entry): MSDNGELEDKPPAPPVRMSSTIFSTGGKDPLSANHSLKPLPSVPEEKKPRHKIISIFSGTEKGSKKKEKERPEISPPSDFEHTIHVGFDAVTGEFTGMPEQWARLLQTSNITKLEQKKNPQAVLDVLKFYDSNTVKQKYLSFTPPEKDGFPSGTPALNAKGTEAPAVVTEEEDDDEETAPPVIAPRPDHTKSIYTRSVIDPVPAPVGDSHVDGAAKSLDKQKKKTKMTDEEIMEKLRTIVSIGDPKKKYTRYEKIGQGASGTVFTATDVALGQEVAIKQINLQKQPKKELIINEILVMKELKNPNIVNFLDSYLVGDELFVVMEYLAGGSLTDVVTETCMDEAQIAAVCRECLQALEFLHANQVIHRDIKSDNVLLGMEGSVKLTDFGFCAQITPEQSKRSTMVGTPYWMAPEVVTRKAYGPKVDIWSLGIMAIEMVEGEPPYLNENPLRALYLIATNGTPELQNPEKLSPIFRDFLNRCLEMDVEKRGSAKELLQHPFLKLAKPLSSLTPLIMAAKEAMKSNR
140 purified human kinases (Homo sapiens, UniProt P28482), sequence (P28482 whole entry): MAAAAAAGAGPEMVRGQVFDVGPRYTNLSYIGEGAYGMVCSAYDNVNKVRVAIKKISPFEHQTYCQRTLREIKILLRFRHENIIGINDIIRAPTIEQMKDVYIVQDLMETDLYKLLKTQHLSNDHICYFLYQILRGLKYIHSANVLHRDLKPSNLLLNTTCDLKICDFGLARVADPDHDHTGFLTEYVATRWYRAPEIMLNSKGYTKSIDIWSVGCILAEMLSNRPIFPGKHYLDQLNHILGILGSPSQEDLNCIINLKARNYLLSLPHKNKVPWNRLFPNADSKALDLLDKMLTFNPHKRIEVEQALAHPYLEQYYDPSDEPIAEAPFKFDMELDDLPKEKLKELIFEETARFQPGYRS
140 purified human kinases (Homo sapiens, UniProt P14616), sequence (P14616 27-1297): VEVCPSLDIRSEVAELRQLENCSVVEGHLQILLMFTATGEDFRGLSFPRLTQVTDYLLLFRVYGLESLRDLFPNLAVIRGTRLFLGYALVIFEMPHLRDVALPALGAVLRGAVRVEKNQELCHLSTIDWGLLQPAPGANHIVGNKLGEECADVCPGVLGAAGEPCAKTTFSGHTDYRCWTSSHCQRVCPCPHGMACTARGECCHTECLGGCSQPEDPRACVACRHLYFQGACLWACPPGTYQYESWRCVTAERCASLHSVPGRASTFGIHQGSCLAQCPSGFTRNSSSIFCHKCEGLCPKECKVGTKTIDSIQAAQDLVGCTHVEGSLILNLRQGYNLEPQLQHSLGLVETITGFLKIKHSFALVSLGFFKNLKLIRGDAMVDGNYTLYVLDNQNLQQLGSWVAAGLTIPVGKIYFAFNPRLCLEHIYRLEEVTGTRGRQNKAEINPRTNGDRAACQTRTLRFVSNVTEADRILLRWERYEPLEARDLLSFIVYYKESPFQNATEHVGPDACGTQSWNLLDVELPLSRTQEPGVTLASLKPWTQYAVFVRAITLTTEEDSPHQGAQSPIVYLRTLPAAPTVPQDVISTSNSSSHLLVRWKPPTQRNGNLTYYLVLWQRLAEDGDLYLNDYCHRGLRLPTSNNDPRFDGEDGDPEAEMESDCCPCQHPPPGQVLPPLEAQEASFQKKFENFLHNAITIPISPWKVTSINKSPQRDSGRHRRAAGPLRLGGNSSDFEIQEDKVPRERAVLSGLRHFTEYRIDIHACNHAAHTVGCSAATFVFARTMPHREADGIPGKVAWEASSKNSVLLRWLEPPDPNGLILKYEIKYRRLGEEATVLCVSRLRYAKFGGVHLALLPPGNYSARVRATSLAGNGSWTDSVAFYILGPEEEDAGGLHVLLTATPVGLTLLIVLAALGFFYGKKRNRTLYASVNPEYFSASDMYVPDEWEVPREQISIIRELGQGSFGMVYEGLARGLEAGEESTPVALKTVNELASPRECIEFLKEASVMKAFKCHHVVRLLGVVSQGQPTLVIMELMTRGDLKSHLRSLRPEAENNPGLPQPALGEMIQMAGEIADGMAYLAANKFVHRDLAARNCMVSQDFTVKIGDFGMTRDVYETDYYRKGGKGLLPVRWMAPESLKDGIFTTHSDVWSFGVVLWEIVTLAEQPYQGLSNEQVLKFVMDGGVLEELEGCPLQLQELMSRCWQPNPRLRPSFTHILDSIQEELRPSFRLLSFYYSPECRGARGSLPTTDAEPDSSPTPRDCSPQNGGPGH
140 purified human kinases (Homo sapiens, UniProt Q86Z02), sequence (Q86Z02 whole entry): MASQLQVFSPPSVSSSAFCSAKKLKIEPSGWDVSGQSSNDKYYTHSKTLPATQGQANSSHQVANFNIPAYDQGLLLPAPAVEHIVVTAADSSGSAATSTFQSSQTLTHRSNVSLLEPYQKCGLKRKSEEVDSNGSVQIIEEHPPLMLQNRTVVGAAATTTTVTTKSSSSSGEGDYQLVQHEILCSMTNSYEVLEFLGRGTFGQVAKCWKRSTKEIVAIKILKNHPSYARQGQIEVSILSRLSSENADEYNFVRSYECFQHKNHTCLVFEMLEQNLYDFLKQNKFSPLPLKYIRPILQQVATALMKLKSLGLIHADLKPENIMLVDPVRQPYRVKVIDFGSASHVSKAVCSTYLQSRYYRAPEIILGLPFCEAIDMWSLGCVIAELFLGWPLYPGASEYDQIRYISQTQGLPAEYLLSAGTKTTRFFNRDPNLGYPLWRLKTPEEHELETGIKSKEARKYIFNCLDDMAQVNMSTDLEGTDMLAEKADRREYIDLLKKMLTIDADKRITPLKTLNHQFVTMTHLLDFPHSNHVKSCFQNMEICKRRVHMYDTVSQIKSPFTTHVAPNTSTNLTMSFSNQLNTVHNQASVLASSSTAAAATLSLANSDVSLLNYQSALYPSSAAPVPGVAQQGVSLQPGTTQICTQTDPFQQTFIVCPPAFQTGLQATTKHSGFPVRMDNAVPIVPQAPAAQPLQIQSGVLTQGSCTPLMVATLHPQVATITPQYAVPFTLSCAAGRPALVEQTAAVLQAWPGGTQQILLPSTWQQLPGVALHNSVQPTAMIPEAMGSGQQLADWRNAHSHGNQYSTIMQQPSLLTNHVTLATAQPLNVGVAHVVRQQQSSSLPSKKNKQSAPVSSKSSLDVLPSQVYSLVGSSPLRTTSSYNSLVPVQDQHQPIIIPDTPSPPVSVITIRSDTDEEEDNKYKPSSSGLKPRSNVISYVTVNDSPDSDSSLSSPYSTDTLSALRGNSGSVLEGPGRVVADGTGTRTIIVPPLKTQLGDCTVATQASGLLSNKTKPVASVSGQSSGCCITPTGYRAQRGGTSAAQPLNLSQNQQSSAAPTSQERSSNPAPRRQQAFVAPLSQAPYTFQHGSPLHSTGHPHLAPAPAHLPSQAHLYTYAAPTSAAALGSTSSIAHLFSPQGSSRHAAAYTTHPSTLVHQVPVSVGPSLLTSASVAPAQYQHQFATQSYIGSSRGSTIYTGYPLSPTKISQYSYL
140 purified human kinases (Homo sapiens, UniProt Q16584), sequence (Q16584 whole entry): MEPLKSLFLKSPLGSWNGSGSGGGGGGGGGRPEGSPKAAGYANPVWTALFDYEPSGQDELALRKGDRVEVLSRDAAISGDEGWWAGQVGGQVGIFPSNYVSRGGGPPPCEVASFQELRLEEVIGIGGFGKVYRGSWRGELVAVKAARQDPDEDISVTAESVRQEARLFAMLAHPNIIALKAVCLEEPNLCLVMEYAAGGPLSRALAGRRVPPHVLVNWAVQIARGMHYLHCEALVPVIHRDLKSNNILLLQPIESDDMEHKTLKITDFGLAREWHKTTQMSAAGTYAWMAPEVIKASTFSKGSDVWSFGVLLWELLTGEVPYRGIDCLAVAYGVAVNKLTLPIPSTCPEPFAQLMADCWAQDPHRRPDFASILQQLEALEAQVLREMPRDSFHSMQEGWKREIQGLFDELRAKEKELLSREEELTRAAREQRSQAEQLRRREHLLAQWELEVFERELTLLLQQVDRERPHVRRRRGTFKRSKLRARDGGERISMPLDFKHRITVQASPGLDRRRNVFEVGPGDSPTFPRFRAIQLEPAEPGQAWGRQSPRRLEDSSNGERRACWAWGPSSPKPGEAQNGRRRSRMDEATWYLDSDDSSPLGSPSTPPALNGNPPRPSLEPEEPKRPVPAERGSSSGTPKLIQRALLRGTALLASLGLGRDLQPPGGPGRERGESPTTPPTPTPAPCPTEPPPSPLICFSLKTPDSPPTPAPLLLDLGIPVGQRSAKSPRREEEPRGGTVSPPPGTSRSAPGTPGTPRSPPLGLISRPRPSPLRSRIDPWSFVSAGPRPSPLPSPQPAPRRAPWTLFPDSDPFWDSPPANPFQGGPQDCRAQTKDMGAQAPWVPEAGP
140 purified human kinases (Homo sapiens, UniProt Q15759), sequence (Q15759 whole entry): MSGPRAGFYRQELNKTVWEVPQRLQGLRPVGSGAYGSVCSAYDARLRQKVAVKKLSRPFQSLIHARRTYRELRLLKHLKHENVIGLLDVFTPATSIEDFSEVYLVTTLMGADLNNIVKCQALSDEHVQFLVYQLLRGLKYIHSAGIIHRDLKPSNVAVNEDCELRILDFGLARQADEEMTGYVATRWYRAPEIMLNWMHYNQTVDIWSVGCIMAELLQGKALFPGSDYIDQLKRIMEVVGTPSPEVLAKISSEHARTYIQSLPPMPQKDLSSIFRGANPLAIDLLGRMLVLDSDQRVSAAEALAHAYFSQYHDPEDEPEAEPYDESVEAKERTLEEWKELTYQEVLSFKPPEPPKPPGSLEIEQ

Q: Which “% Inhibition Run 1” value ([1]; PAK2) does the source give for `[Cu+2].[Cu+2].[Cu+2].c1ccc(-c2csc(NCCN(CCNc3nc(-c4ccccn4)cs3)CCNc3nc(-c4ccccn4)cs3)n2)nc1.c1ccc(-c2csc(NCCN(CCNc3nc(-c4ccccn4)cs3)CCNc3nc(-c4ccccn4)cs3)n2)nc1` [[L2Cu3]6+] here?
A: 44.4%

Q: What about the “% Inhibition Run 2” value ([1]; PAK2) of the same molecule?
A: 32.1%

Q: And the “% Inhibition, Mean” value ([1]; PAK2)?
A: 38%

Q: And the mean % activity ([1]; PAK2)?
A: 62%

Q: What about the “% activity” value ([1]; PAK2, Run 1) of the same molecule?
A: 55.6%

Q: And the “% activity” value ([1]; PAK2, Run 2)?
A: 67.9%

Q: And the “% Inhibition Run 1” value ([2]; EIF2AK3)?
A: 39.9%

Q: What about the “% Inhibition Run 2” value ([2]; EIF2AK3) of the same molecule?
A: 30.4%

Q: And the “% Inhibition, Mean” value ([2]; EIF2AK3)?
A: 35%

Q: And the mean % activity ([2]; EIF2AK3)?
A: 65%

Q: What about the “% activity” value ([2]; EIF2AK3, Run 1) of the same molecule?
A: 60.1%

Q: What about the “% activity” value ([2]; EIF2AK3, Run 2) of the same molecule?
A: 69.6%

Q: What about the “% Inhibition Run 1” value ([3]; ERK2) of the same molecule?
A: 12.1%

Q: And the “% Inhibition Run 2” value ([3]; ERK2)?
A: 8.4%

Q: And the “% Inhibition, Mean” value ([3]; ERK2)?
A: 10%

Q: What about the mean % activity ([3]; ERK2) of the same molecule?
A: 90%

Q: What about the “% activity” value ([3]; ERK2, Run 1) of the same molecule?
A: 87.9%

Q: What about the “% activity” value ([3]; ERK2, Run 2) of the same molecule?
A: 91.6%

Q: And the “% Inhibition Run 1” value ([4]; HIPK1)?
A: 90.8%

Q: What about the “% Inhibition Run 2” value ([4]; HIPK1) of the same molecule?
A: 84.1%

Q: What about the “% Inhibition, Mean” value ([4]; HIPK1) of the same molecule?
A: 87%

Q: And the mean % activity ([4]; HIPK1)?
A: 13%

Q: And the “% activity” value ([4]; HIPK1, Run 1)?
A: 9.2%

Q: And the “% activity” value ([4]; HIPK1, Run 2)?
A: 15.9%

Q: And the “% Inhibition Run 1” value ([5]; MLK3)?
A: 94.9%

Q: And the “% Inhibition Run 2” value ([5]; MLK3)?
A: 94.9%

Q: And the “% Inhibition, Mean” value ([5]; MLK3)?
A: 95%

Q: And the mean % activity ([5]; MLK3)?
A: 5%

Q: What about the “% activity” value ([5]; MLK3, Run 1) of the same molecule?
A: 5.1%

Q: And the “% activity” value ([5]; MLK3, Run 2)?
A: 5.1%

Q: And the “% Activity inhibition Mean” value ([5]; MLK3, 10 µM)?
A: 94.9%

Q: What about the “% Activity inhibition Run 1” value ([5]; MLK3, 10 µM) of the same molecule?
A: 94.9%

Q: And the “% Activity inhibition Run 2” value ([5]; MLK3, 10 µM)?
A: 94.9%

Q: And the “% Activity remaining Run 1” value ([5]; MLK3, 10 µM)?
A: 5.10%

Q: What about the “% Activity remaining Run 2” value ([5]; MLK3, 10 µM) of the same molecule?
A: 5.10%

Q: And the “% Activation, Mean value” ([6]; TGFBR1)?
A: 30%

Q: And the “% Inhibition Run 1” value ([6]; TGFBR1)?
A: -44.2%

Q: What about the “% Inhibition Run 2” value ([6]; TGFBR1) of the same molecule?
A: -16.7%

Q: And the “% Inhibition, Mean” value ([6]; TGFBR1)?
A: -30%

Q: What about the mean % activity ([6]; TGFBR1) of the same molecule?
A: 130%

Q: And the “% activity” value ([6]; TGFBR1, Run 1)?
A: 144.2%

Q: And the “% activity” value ([6]; TGFBR1, Run 2)?
A: 116.7%

Q: And the “% Activity Run 1” value ([6]; TGFBR1, 10 µM)?
A: 144.20%

Q: What about the “% Activity Run 2” value ([6]; TGFBR1, 10 µM) of the same molecule?
A: 116.70%

Q: And the “% Inhibition Run 1” value [7]?
A: 88%

Q: What about the “% Inhibition Run 2” value [7] of the same molecule?
A: 79.4%

Q: And the “% Inhibition, Mean” value [7]?
A: 84%

Q: What about the mean % activity [7] of the same molecule?
A: 16%

Q: And the “% activity” value ([7]; Run 1)?
A: 12%

Q: And the “% activity” value ([7]; Run 2)?
A: 20.6%

Q: And the “% Inhibition Run 1” value [8]?
A: 24.1%

Q: What about the “% Inhibition Run 2” value [8] of the same molecule?
A: 0.3%

Q: And the “% Inhibition, Mean” value [8]?
A: 12%

Q: And the mean % activity [8]?
A: 88%

Q: And the “% activity” value ([8]; Run 1)?
A: 75.9%

Q: And the “% activity” value ([8]; Run 2)?
A: 99.7%

Q: And the “% Inhibition Run 1” value [9]?
A: 26.1%

Q: And the “% Inhibition Run 2” value [9]?
A: 42.9%

Q: And the “% Inhibition, Mean” value [9]?
A: 35%

Q: What about the mean % activity [9] of the same molecule?
A: 66%

Q: What about the “% activity” value ([9]; Run 1) of the same molecule?
A: 73.9%

Q: What about the “% activity” value ([9]; Run 2) of the same molecule?
A: 57.1%

Q: With `CC(=O)[O-].CC(=O)[O-].CC(=O)[O-].CC(=O)[O-].CC(=O)[O-].CC(=O)[O-].[Zn+2].[Zn+2].[Zn+2].c1ccc(-c2csc(NCCN(CCNc3nc(-c4ccccn4)cs3)CCNc3nc(-c4ccccn4)cs3)n2)nc1.c1ccc(-c2csc(NCCN(CCNc3nc(-c4ccccn4)cs3)CCNc3nc(-c4ccccn4)cs3)n2)nc1` [[L2Zn3]6+] as the molecule, how does the “% Inhibition, Mean” value ([1]; PAK2) read?
A: 22%

Q: What about the “% Inhibition, Run 1 / Run 2” value ([1]; PAK2) of the same molecule?
A: 23% and 21%

Q: And the mean % activity ([1]; PAK2)?
A: 78%

Q: What about the “% activity” value ([1]; PAK2, duplicate runs) of the same molecule?
A: 77% and 79%

Q: And the “% Inhibition, Mean” value ([2]; EIF2AK3)?
A: 37%

Q: What about the “% Inhibition, Run 1 / Run 2” value ([2]; EIF2AK3) of the same molecule?
A: 45% and 29%

Q: What about the mean % activity ([2]; EIF2AK3) of the same molecule?
A: 63%

Q: And the “% activity” value ([2]; EIF2AK3, duplicate runs)?
A: 55% and 71%

Q: What about the “% Inhibition, Mean” value ([3]; ERK2) of the same molecule?
A: 18%

Q: And the “% Inhibition, Run 1 / Run 2” value ([3]; ERK2)?
A: 19% and 18%

Q: What about the mean % activity ([3]; ERK2) of the same molecule?
A: 82%

Q: And the “% activity” value ([3]; ERK2, duplicate runs)?
A: 81% and 82%

Q: And the “% Inhibition, Mean” value ([4]; HIPK1)?
A: 14%

Q: What about the mean % activity ([4]; HIPK1) of the same molecule?
A: 86%

Q: What about the “% activity” value ([4]; HIPK1, duplicate runs) of the same molecule?
A: 92% and 81%

Q: And the “% Inhibition, Mean” value ([5]; MLK3)?
A: 5%

Q: What about the “% Inhibition, Run 1 / Run 2” value ([5]; MLK3) of the same molecule?
A: 4% and 6%

Q: And the mean % activity ([5]; MLK3)?
A: 95%

Q: And the “% activity” value ([5]; MLK3, duplicate runs)?
A: 96% and 94%

Q: And the “% Inhibition, Mean” value ([6]; TGFBR1)?
A: 41%

Q: What about the “% Inhibition, Run 1 / Run 2” value ([6]; TGFBR1) of the same molecule?
A: 35% and 48%

Q: What about the mean % activity ([6]; TGFBR1) of the same molecule?
A: 59%

Q: And the “% activity” value ([6]; TGFBR1, duplicate runs)?
A: 65% and 53%

Q: And the “% Inhibition, Mean” value [7]?
A: 29%

Q: And the mean % activity [7]?
A: 71%

Q: And the “% activity” value ([7]; duplicate runs)?
A: 58% and 84%

Q: And the “% Inhibition, Mean” value [8]?
A: -0.45%

Q: What about the “% Inhibition, Run 1 / Run 2” value [8] of the same molecule?
A: 0.2% and -1.1%

Q: And the mean % activity [8]?
A: 100%

Q: What about the “% activity” value ([8]; duplicate runs) of the same molecule?
A: 100% and 101%

Q: And the “% Inhibition, Mean” value [9]?
A: 6.6%

Q: What about the “% Inhibition, Run 1 / Run 2” value [9] of the same molecule?
A: 2.4% and 11%

Q: What about the mean % activity [9] of the same molecule?
A: 93%

Q: What about the “% activity” value ([9]; duplicate runs) of the same molecule?
A: 98% and 89%
